The text below walks through data of patent US20250275924A1, “Anticholinergic Agents and Muscarinic Agonists for the Treatment of Demodex Related Conditions” (ATTILLAPS HOLDINGS INC., priority 2022, published 2025).

In one data set the test system is Demodex mites. Description: in vitro assay of Demodex mite paralysis and/or killing (survival time). As for the experimental part: FIG. 1A-1E is a table summary of an in vitro assay of various agents on Demodex mites survival time and paralysis.
FIG. 1A-1E is a summary of various agents tested in an in vitro assay of Demodex mite paralysis and/or killing. The efficacy of various agents are evaluated in Demodex characterization and/or survival time experiments, including in terms of LT50 (time at which 50% of Demodex mites are killed) and/or associated time (in hours: min or total minutes).

The conditions of data set [1]: oral paroxetine, rosacea; cited from earlier work.
[2] abbreviates: grouping of active agents in the summary, data in FIG. 1A-1E (not reproduced).

Like-named read-outs stand apart in the source and are kept apart here.

For `Clc1ccc2c(c1)C(N1CCNCC1)=Nc1ccccc1O2` [amoxapine], the “paralyzes Demodex mites” value in the data set with Demodex mites (setting [2]) was “paralyzes Demodex mites”. On to `CN1[C@@H]2CC[C@H]1C[C@@H](OC(c1ccccc1)c1ccccc1)C2` [benztropine], for which, in the data set on Demodex mites (setting [2]), the “kills Demodex mites” value is “kill Demodex mites”. The same measure, in the same setting: the entry for `CC(NC(C)(C)C)C(=O)c1cccc(Cl)c1` (centres unmarked) [bupropion] is “kill Demodex mites”. As for `CN(C)CCC(c1ccc(Cl)cc1)c1ccccn1` (centres unmarked) [chlorpheniramine], the “paralyzes Demodex mites” value with Demodex mites (setting [2]) is recorded as “paralyzes Demodex mites”. Turning to `C[N+]12CCC(CC1)C(OC(=O)C(O)(c1ccccc1)c1ccccc1)C2` (centres unmarked) [clidinium], in the data set with Demodex mites (setting [2]), the “paralyzes Demodex mites” value is reported as “paralyzes Demodex mites”. For the compound `COc1ccc2c(c1)[C@]13CCCC[C@@H]1[C@H](C2)N(C)CC3` [dextromethorphan], the “kills Demodex mites” value in the data set on Demodex mites (setting [2]) is “kill Demodex mites”.

Consider `CN(C)CCOC(c1ccccc1)c1ccccc1.Cn1c(=O)c2[nH]c(Cl)nc2n(C)c1=O` [dimenhydrinate], for which, in the data set on Demodex mites (setting [2]), the “paralyzes Demodex mites” value is “paralyzes Demodex mites”. As to `CC(C)C(=O)Oc1ccc(CO)cc1[C@H](CCN(C(C)C)C(C)C)c1ccccc1` [fesoterodine], the “paralyzes Demodex mites” value with Demodex mites (setting [2]) is on record as “paralyzes Demodex mites”.

`COCCCC/C(=N\OCCN)c1ccc(C(F)(F)F)cc1` [fluvoxamine]: the “kills Demodex mites” value in the data set on Demodex mites (setting [2]) is listed as “kill Demodex mites”.

In the case of `CN(C)CCCN1c2ccccc2CCc2ccccc21` [imipramine], the “kills Demodex mites” value with Demodex mites (setting [2]) was “kill Demodex mites”. In the case of `CNC1(C)C2CCC(C2)C1(C)C` (centres unmarked) [mecamylamine], the “kills Demodex mites” value in the data set on Demodex mites (setting [2]) was “kill Demodex mites”.

As to `CNCCC=C1c2ccccc2CCc2ccccc21` [nortriptyline], the “paralyzes Demodex mites” value in the data set on Demodex mites (setting [2]) is recorded as “paralyzes Demodex mites”. With `Fc1ccc([C@@H]2CCNC[C@H]2COc2ccc3c(c2)OCO3)cc1` [paroxetine], in the data set on Demodex mites (1% paroxetine), the “onset of Demodex mite paralysis” value is “within the first hour” and the “period of Demodex mite paralysis” value is “at least 12 hours”. Moreover, the “paralyzes Demodex mites” value with Demodex mites (setting [2]) is reported as “paralyzes Demodex mites”. In data set [1], the “patients indicative of improved clinical symptoms” value is on record as 42.9% and the tolerability result was “well-tolerated”. In the case of `CC(CN1c2ccccc2Sc2ccccc21)N(C)C` (centres unmarked) [promethazine], the “kills Demodex mites” value in the data set on Demodex mites (setting [2]) is reported as “kill Demodex mites”. As to `OCCOCCN1CCN(C2=Nc3ccccc3Sc3ccccc32)CC1` [quetiapine], in the data set with Demodex mites, the “paralyzes Demodex mites” value is on record as “paralyzes Demodex mites”. Take `OC(CCN1CCCCC1)(c1ccccc1)C1CCCCC1` (centres unmarked) [trihexyphenidyl]: the “paralyzes Demodex mites” value with Demodex mites (setting [2]) is “paralyzes Demodex mites”.
